US20050240034A1, “Artemisinin-based peroxide compounds as broad spectrum anti-infective agents” (priority 2002, published 2005)

Experiments:
[1] = tested on: P. falciparum; settings: cited from earlier work
[2] = tested on: P. falciparum Sierra Leone D6 clone; experiment: WHO/TDR in vitro antimalarial screen (uptake of radiolabeled nucleic acid precursor), D6 clone; assay type: cell-based, Plasmodium falciparum; settings: mefloquine-resistant, chloroquine-sensitive, second value in brackets not explained
Method: (§1) All test compounds are solubilized in DMSO and diluted 400 fold (to rule out a DMSO effect) in culture medium with plasma for a starting concentration of at least 12,500 ng/mL. Drugs are subsequently diluted five fold using the Cetus Pro/Pette system utilizing a range of concentrations from 0.8 ng/mL to 12,500 ng/mL. Fifty percent inhibitory concentrations are reported in ng/mL.
(§2) The D6 African P. falciparum clone is sensitive to chloroquine, pyrimethamine and sulfadoxine but resistant to mefloquine. The W2 Indochina P. falciparum clone is resistant to chloroquine, pyrimethamine and sulfadoxine but sensitive to mefloquine. The K1 P. falciparum is a resistant strain, where NF54 P. falciparum is a sensitive strain.

[3] = tested on: P. falciparum Indochina W2 clone; experiment: WHO/TDR in vitro antimalarial screen, W2 clone; assay type: cell-based, Plasmodium falciparum; settings: chloroquine-resistant, mefloquine-sensitive, second value in brackets not explained
Method: as §1, §2

[4] = tested on: P. falciparum K1; experiment: WHO/TDR in vitro antimalarial screen, K1; assay type: cell-based, Plasmodium falciparum; settings: K1, chloroquine-resistant
Method: as §1, with “[…]. All” for “All”
as §2

[5] = tested on: P. falciparum NF54; experiment: WHO/TDR in vitro antimalarial screen, NF54; assay type: cell-based, Plasmodium falciparum; settings: NF54, chloroquine-sensitive; second value in brackets not explained
Method: as §1, with “[…]. All” for “All”
as §2

[6] = tested on: P. berghei N; experiment: in vivo Peter's 4-day antimalarial test in mice, P. berghei N; settings: mice, 4-day test, unit not given; for P. berghei N P.O. ED50 / P. berghei N P.O. ED90: oral; for P. berghei N S.C. ED50 / P. berghei N S.C. ED90: subcutaneous
Method: (§3) The parasitemia is determined on the day following the last treatment—day 4 to determine qualitatively the presence and degree of activity at the screening dose.

[7] = tested on: P. yoelli ssp. NS; experiment: in vivo 4-day antimalarial test in mice, P. yoelli ssp. NS; settings: subcutaneous; unit not given
Method: as §3

[8] = pharmacokinetics in rats after intravenous and oral administration; assay type: in vivo; settings: for absolute oral bioavailability: high oral dose (~120 mg/kg)
Method: Preliminary data for the PK results of compounds 39 and 36 have been disclosed. […] Due to their very low aqueous solubility, the absolute oral bioavailability of each compound was low. The low value is rather a function of the high oral dose (˜120 mg/kg), but even with these high doses, the plasma concentrations are still relatively low.
The reason for the use of high oral dose is that the LC/MS assay has different intrinsic sensitivities for the different series of the Malperox compounds. Also, in order to compare all compounds from the different series at the same oral molar dose (dictated by the compound, which has the highest LOQ in the assay), it was necessary for them to have gone with this dose.
(§4) Compounds 39 and 36 have reasonably low plasma LOQ of about 10 ng/mL, so it will be tested with lower oral doses in the coming future. If we assume that it is only the fraction of drug in solution that is absorbed, then the oral bioavailabilities may well increase with lower doses.
Solubility limitations meant that 36 could only be dosed IV at approximate 2 mg/kg (compared with the approximate 12 mg/kg dose for 39). It is possible that the shorter measured half life for 36 was a function of lower plasma concentrations, which have reflected part of the distribution phase rather than a true elimination phase.

[9] = aqueous solubility; assay type: physicochemical; settings: pH 6.5, phosphate buffer
Method: as §4

[10] = tested on: P. falciparum D6 (Sierra Leone); experiment: antimalarial parasite LDH (pLDH) assay, D6; assay type: cell-based, Plasmodium falciparum; settings: for P. falciparum (IC50) D6: LDH assay, Table 6; for S. I. (D6): Selectivity Index = IC50 (Vero cells)/IC50 (P. falciparum)
Method: (§5) The Thad Cochran National Center for Natural Products Research (University of Mississippi) in vitro antimalarial screen was conducted using an enzyme assay for detection of P. falciparum (see procedure below). This assay is based on the observation that lactate dehydrogenase (LDH) of P. falciparum is distinguishable from host LDH activity. P. falciparum LDH rapidly uses 3-acetyl pyridine nicotinamide adenine dinucleotide (APAD) as a coenzyme in the biotransformation of […].^38 The same process is carried out in human red blood cells at a very slow rate.
(§6) The “Antimalarial parasite LDH assay” is currently being conducted according the following procedure: prepare a suspension of RBC with a 2% parasitemia and 2% hematocrit in malaria complete medium. Dispense 200 μl aliquots of this suspension into each well of a 96 well microtiter plate. Add 10 μl volumes of the drugs to be tested in duplicate to the appropriate wells. Place the plates into humidified chamber and flush the cultures with a gas mixture consisting of 90% N2, 5% O2, and 5% CO2. Transfer the chamber containing the plates to an incubator, and incubate for 48 hours at 37° C. After 48 hours add 100 μl aliquots of the Malstat™ reagent to each well of a new 96-well microtiter plate Resuspend the cultures from the assay plate by mixing each well up and down several times. Remove 20 μl from each well of the resuspend culture and add to the plate containing the Malstat™ reagent. Incubate the plates at room temperature for 30 minutes. After 30 minutes, add to each well 20 μl of the 1:1 mixture of the NBT/PES solution (2 mg/ml and 0.1 mg/ml, respectively). Incubate the plates in the dark for 1 hour. Add 100 μl of 5% acetic acid solution to stop the reaction. The plate is then read at an endpoint of approximately 650 nm. The dose response curves are generated using Microsoft Excel.
(§7) Antimalarial activity of the analogues was determined in vitro on chloroquine sensitive (D)6, Sierra Leone) and resistant (W2, IndoChina) strains of Plasmodium falciparum. The 96 well microplate assay is based on evaluation of the effect of the compounds on the growth of asynchronous cultures of P. falciparum, determined by the assay of parasite lactate dehydrogenase (pLDH) activity.^28 The appropriate dilutions of the compounds were prepared in DMSO or RPMI-1640 medium and added to the cultures of P. falciparum (2% hematocrit, 2% parasitemia) set up in clear flat bottomed 96 well plates. The plates were placed into the humidified chamber and flushed with a gas mixture of 90% N2, 5% CO2 & 5% O2. The cultures were incubated at 37° C. for 48 hours. Growth of the parasite in each well was determined by pLDH assay using Malstat® reagent. The medium and RBC controls were also set-up in each plate. The standard antimalarial agents, chloroquine and artemisinin, were used as the positive controls while DMSO was tested as the negative control.

[11] = tested on: P. falciparum W2 (IndoChina); experiment: antimalarial parasite LDH (pLDH) assay, W2; assay type: cell-based, Plasmodium falciparum; settings: for P. falciparum (IC50) W2: LDH assay, Table 6; for S. I. (W2): Selectivity Index = IC50 (Vero cells)/IC50 (P. falciparum)
Method: as §5, §6
as §7, with “plate.” for “plate. The standard antimalarial agents, chloroquine and artemisinin, were used as the positive controls while DMSO was tested as the negative control.”

[12] = tested on: VERO cells (monkey kidney fibroblast); assay type: cell-based
Method: (§8) Antileishmanial activity of the compounds was tested on a transgenic cell line of Leishmania donovani promastigotes expressing firefly luciferase.^29a In a 96 well microplate assay, compounds with appropriate dilution were added to the leishmania promastigotes culture (2×10^6 cell/mL). The plates were incubated at 26° C. for 72 hours and growth of leishmania promastigotes was determined by luciferase assay with Steady Glo® reagent (Promega, USA). Pentamidine and Amphotericin B were used as standard antileishmanial agents. The analogues were simultaneously tested for cytotoxicity on VERO cells (monkey kidney fibroblast) by Neutral Red assay.^29b IC50 values for the compounds were computed from the growth inhibition curve.

[13] = tested on: Leishmania donovani promastigotes expressing firefly luciferase; experiment: antileishmanial luciferase assay on transgenic promastigotes; assay type: cell-based; settings: Table 1 (artemisinin analogues); NA = not active up to 125 μg/ml; read-out: Antileishmanial activity IC50
Method: as §8

Row | Molecule | P. falciparum (IC50) D6 [2] [µg/mL] | P. falciparum (IC50) W2 [3] [µg/mL] | P. falciparum (IC50) K1 [4] [µg/mL] | P. falciparum (IC50) NF54 [5] | P. berghei N P.O. ED50 [6] | P. berghei N P.O. ED90 [6] | P. berghei N S.C. ED50 [6] | P. berghei N S.C. ED90 [6] | P. yoelli ssp. NS (S.C.) ED50 [7] | P. yoelli ssp. NS (S.C.) ED90 [7] | absolute oral bioavailability [8] | aqueous solubility [9] [microgram per mL] | P. falciparum (IC50) D6 [10] [µg/mL] | S. I. (D6) [10] | P. falciparum (IC50) W2 [11] [µg/mL] | S. I. (W2) [11] | also measured
1 | C[C@H]1[C@@H](O)O[C@@H]2O[C@@]3(C)CC[C@H]4[C@H](C)CC[C@@H]1[C@@]24OO3 [dihydroartemisinin] | – | – | – | – | – | – | – | – | – | – | – | – | – | – | – | – | times more potent than the parent compound (artemisinin) in vitro [1]: approximately 10 times
2 | (+)-Octahydro-3,6α-dimethyl-3,12-epoxy-9β-(3′-(m-chlorophenyl)propyl)-12H-pyrano[4,3j]-1,2-benzodioxepin [Compound 36] | 0.00755 | 0.0216 | 0.01007 | 16.27 (40.19) ng/mL | 2.0 (0.9-3.5) | 8.3 (3.5-14.0) | 0.5 (0.1-1.0) | 0.9 (0.3-1.8) | 0.60 (0.4-1.0) | 1.00 (0.8-1.8) | low | ~0.1 | 0.0076 | >63.0 | 0.008 | >60 | Cytotoxicity (Vero) TC50 [12]: NC^b
3 | (+)-Octahydro-3,6α-dimethyl-3,12-epoxy-9β-(3′-(m-trifluoromethylphenyl)propyl)-12H-pyrano[4,3j]-1,2-benzodioxepin [Compound 38] | 0.00848 | 0.03032 | 0.012 | 35.60 (30.76) ng/mL | 1.25 (0.5-2.3) | 4.4 (1.3-6.2) | 0.4 (0.2-1.2) | 0.75 (0.4-2.1) | 0.60 (0.3-0.9) | 1.00 (0.5-1.5) | – | – | 0.0087 | >55.0 | 0.011 | >43 | IC50 ([10]; pLDH assay, Table 5, read-out: P. falciparum (D6 Clone) IC50): 27.8 nM; IC50 ([11]; pLDH assay, Table 5, read-out: P. falciparum (W2 Clone) IC50): 11.3 nM; IC50 [13]: 1900 nM
4 | (+)-Octahydro-3,6α-dimethyl-3,12-epoxy-9β-(3′-(p-trifluoromethylphenyl)propyl)-12H-pyrano[4,3j]-1,2-benzodioxepin [Compound 39] | 0.02813 | 0.05801 | 0.03955 | 101.52 (48.78) ng/mL | 0.63 (0.32-1.25) | 2.1 (1.1-4.1) | 0.44 (0.25-0.62) | 0.85 (0.5-1.2) | 0.67 (0.5-0.88) | 1.25 (0.95-1.6) | low | ~0.1 | 0.012 | >40 | 0.012 | >40 | half-life ([8]; IV, approximate 12 mg/kg): 1.22 h
